Data reported in article PMC9744561 (Genes, Brain, and Behavior, 2022).
pIC50: −log10 of the molar value.

target: T1, Octα2R (α2-adrenergic-like octopamine receptor) (Drosophila melanogaster, UniProt Q9VE32); test: aequorin Ca2+ luminescence, inhibition of octopamine response, HEK-293 cells; format: cell-based
T1 sequence (Q9VE32 1-699): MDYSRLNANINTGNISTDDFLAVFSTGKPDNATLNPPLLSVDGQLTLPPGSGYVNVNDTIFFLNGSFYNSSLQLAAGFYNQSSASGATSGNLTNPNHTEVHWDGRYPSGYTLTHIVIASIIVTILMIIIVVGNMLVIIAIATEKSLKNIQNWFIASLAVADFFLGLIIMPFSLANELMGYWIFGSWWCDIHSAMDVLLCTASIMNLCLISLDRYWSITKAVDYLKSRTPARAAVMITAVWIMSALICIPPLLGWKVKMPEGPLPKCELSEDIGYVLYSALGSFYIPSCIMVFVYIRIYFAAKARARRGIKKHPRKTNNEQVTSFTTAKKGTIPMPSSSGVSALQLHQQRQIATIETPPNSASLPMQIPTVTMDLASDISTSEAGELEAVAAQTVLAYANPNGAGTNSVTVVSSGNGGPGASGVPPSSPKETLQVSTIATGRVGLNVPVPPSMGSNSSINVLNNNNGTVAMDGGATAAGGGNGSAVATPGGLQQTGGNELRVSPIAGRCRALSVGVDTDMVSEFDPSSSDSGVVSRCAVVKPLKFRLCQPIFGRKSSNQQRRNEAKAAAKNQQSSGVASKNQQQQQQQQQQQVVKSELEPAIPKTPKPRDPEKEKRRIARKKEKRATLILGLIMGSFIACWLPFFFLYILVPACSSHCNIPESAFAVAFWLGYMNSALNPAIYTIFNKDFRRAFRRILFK

Row | pIC50 | Structure (SMILES)
1 | 4.74 | COC(=O)[C@@H]1[C@H]2C[C@H]3c4[nH]c5ccccc5c4CCN3C[C@@H]2CC[C@@H]1O [YO, yohimbine]
2 | 7.00 | NC1=NCC2c3ccccc3Cc3ccccc3N12 (stereo not drawn) [EP, epinastine]
3 | 7.03 | Cc1ccc(N(CC2=NCCN2)c2cccc(O)c2)cc1 [PA, phentolamine]
